15 molecules from ChEMBL document CHEMBL5053504, “Potent Inhibition of HIF1α and p300 Interaction by a Constrained Peptide Derived from CITED2” (J Med Chem, 2021) can be followed below.

Data set [1] concerns the target T1, CREB-binding protein/Histone acetyltransferase p300 (Homo sapiens, UniProt Q09472+Q92793). In words: Binding affinity to His-tagged human CH1 domain of p300 (323 to 423 residues)expressed in Escherichia coli Rosetta (DE3)/CBP (unknown origin) by fluorescence polarization assay.
For data set [2], the system named is HeLa. Kind of data set: Cytotoxicity against human HeLa cells assessed as cell membrane disruption measured after 4 hrs under hypoxia condition by LDH assay. Format: functional, cell-based.
Data set [3] concerns the target T1, CREB-binding protein/Histone acetyltransferase p300. Kind of data set: Binding affinity to p300/CBP in hypoxia-induced human HeLa cells assessed as p300/CBP pull down at 25 uM measured after 12 hrs pulldown-based Western blot analysis.
Data set [4] is described as follows: Stability of the compound in mouse serum by LC/MS analysis. Format: ADME, cell-free.
The nature of data set [5]: Drug uptake in human HeLa cells measured after 4 hrs by tryphan blue staining based flow cytometry. It counts as ADME, cell-based.
Data set [6] concerns the target T2, HIF1A/p300/CREB-binding protein (Homo sapiens) (UniProt Q09472+Q16665+Q92793). Kind of data set: Inhibition of hypoxia-induced HIF1alpha/P300-CBP interaction in human HeLa cells at 10 uM measured after 24 hrs by co-immunoprecipiation assay. Format: cell-based.
Data set [7] has as its system HeLa. Kind of data set: Downregulation of HK1 protein expression in human HeLa cells at 25 uM measured after 24 hrs under hypoxia condition by Western blot analysis. It counts as functional, cell-based.
For data set [8], the system named is HeLa. Kind of data set: Cytotoxicity against human HeLa cells assessed as reduction in cell viability measured after 24 hrs under hypoxia condition by MTT assay. Format: functional, cell-based.
Data set [9] concerns the target T2, HIF1A/p300/CREB-binding protein (Homo sapiens). Kind of data set: Inhibition of hypoxia-induced HIF1alpha/P300-CBP interaction mediated gene transcriptional activity in human HeLa cells co-transfected with luciferase reporter plasmid containing HRE and pRL-CMV vector at 25 uM incubated for 24 hrs under hypoxic condition by HRE-dependent dual luciferase reporter gene assay. Format: cell-based.

The test system of data set [10] is HeLa. Kind of data set: Downregulation of VEGF mRNA expression in human HeLa cells at 25 uM measured after 24 hrs under hypoxia condition by RT-PCR analysis. It counts as functional, cell-based.
For data set [11], the system named is HeLa. In words: Cytotoxicity against human HeLa cells assessed as cell growth inhibition measured after 24 hrs by MTT assay. It counts as functional, cell-based.
Data set [12] relates to HeLa. Kind of data set: Downregulation of GLUT1 mRNA expression in human HeLa cells at 25 uM measured after 24 hrs under hypoxia condition by RT-PCR analysis. It counts as functional, cell-based.
In the next data set the test system is A549. In words: Cytotoxicity against human A549 cells assessed as cell growth inhibition measured after 24 hrs by MTT assay. Format: functional, cell-based.
Data set [13] deals with T2, HIF1A/p300/CREB-binding protein (Homo sapiens). In words: Inhibition of HA-tagged CTAD (786 to 826 residues) HIF1alpha/Flag-tagged P300 CH1 domain (323 to 423 residues)/CBP (unknown origin) interaction expressed in HEK293T cells measured after 24 hrs by co-iimunoprecipitation assay. Format: cell-based.
For data set [14], the system named is HeLa. In words: Downregulation of HK1 mRNA expression in human HeLa cells at 25 uM measured after 24 hrs under hypoxia condition by RT-PCR analysis. It counts as functional, cell-based.
A further data set has as its system MDA-MB-231. In words: Cytotoxicity against human MDA-MB-231 cells assessed as cell growth inhibition measured after 24 hrs by MTT assay. It counts as functional, cell-based.
Data set [15] concerns HeLa. Kind of data set: Downregulation of GLUT1 protein expression in human HeLa cells at 25 uM measured after 24 hrs under hypoxia condition by Western blot analysis. It counts as functional, cell-based.
Data set [16] deals with HeLa. Kind of data set: Downregulation of VEGF protein expression in human HeLa cells at 25 uM measured after 24 hrs under hypoxia condition by Western blot analysis. Format: functional, cell-based.

Calls of active or inactive are those of the source. No cut-off for these calls is given here. Where a SMILES comes first, the peptide text is derived from it.

T1 sequence (Q09472 whole entry, looked up, the tested form may be a part): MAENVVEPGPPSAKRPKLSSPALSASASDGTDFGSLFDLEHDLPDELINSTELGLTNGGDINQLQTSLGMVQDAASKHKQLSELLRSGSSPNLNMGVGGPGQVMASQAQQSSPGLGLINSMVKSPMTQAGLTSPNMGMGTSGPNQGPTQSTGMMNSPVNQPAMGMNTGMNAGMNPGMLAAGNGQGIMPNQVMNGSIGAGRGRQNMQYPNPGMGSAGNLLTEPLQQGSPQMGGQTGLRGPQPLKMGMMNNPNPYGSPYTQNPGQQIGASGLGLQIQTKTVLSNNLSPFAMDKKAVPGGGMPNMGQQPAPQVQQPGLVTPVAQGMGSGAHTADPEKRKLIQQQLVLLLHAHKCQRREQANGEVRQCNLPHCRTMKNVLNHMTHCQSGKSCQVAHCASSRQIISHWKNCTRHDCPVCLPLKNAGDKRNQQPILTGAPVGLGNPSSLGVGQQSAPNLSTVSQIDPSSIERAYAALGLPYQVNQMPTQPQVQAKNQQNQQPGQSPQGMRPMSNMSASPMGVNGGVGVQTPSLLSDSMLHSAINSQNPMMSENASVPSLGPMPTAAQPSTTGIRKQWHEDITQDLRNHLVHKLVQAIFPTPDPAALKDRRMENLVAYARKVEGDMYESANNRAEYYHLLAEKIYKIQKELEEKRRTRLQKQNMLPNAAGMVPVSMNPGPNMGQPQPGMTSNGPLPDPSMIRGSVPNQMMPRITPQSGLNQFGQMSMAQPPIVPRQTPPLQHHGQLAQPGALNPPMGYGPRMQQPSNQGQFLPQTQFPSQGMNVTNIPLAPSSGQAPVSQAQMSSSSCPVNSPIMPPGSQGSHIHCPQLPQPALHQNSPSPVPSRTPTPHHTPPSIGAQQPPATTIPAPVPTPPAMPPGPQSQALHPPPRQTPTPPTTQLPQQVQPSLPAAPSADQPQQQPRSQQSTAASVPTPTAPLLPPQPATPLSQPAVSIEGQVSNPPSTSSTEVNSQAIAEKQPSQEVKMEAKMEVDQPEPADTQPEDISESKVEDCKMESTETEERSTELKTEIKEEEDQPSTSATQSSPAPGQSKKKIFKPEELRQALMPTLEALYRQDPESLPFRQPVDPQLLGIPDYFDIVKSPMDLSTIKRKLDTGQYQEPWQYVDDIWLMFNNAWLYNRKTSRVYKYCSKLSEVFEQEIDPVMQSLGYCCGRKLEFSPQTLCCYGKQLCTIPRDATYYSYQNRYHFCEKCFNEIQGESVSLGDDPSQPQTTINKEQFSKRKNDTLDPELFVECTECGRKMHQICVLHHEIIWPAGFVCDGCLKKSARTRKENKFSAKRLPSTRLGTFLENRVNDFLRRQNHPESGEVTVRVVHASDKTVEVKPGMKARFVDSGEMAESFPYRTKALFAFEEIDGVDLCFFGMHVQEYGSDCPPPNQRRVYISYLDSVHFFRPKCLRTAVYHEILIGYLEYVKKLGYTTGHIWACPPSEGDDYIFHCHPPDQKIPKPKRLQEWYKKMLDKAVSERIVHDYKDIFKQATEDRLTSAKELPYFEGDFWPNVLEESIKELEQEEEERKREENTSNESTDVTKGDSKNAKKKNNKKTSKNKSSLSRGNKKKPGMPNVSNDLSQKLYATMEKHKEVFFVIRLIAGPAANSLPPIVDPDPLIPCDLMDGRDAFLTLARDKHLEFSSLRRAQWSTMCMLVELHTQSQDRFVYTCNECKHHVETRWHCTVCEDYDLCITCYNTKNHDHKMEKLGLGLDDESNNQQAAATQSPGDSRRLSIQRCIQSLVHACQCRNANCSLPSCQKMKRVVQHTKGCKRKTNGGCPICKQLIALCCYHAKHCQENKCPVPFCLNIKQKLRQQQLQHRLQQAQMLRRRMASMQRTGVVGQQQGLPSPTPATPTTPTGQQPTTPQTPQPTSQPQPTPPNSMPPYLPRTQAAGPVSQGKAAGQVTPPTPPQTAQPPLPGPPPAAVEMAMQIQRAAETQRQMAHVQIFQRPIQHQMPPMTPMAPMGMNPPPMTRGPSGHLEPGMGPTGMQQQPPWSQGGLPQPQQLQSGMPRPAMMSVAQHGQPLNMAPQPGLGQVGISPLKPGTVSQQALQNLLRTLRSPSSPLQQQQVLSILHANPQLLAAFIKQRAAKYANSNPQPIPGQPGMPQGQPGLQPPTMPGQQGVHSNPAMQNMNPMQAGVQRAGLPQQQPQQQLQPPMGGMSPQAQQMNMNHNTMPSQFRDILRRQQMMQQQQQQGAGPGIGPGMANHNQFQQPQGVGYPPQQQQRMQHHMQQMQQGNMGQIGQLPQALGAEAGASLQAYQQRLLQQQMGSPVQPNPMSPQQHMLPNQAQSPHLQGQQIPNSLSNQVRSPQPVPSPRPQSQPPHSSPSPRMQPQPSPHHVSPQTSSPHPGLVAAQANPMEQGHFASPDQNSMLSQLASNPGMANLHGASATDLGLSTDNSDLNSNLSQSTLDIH
T1 sequence (Q92793 whole entry, looked up, the tested form may be a part): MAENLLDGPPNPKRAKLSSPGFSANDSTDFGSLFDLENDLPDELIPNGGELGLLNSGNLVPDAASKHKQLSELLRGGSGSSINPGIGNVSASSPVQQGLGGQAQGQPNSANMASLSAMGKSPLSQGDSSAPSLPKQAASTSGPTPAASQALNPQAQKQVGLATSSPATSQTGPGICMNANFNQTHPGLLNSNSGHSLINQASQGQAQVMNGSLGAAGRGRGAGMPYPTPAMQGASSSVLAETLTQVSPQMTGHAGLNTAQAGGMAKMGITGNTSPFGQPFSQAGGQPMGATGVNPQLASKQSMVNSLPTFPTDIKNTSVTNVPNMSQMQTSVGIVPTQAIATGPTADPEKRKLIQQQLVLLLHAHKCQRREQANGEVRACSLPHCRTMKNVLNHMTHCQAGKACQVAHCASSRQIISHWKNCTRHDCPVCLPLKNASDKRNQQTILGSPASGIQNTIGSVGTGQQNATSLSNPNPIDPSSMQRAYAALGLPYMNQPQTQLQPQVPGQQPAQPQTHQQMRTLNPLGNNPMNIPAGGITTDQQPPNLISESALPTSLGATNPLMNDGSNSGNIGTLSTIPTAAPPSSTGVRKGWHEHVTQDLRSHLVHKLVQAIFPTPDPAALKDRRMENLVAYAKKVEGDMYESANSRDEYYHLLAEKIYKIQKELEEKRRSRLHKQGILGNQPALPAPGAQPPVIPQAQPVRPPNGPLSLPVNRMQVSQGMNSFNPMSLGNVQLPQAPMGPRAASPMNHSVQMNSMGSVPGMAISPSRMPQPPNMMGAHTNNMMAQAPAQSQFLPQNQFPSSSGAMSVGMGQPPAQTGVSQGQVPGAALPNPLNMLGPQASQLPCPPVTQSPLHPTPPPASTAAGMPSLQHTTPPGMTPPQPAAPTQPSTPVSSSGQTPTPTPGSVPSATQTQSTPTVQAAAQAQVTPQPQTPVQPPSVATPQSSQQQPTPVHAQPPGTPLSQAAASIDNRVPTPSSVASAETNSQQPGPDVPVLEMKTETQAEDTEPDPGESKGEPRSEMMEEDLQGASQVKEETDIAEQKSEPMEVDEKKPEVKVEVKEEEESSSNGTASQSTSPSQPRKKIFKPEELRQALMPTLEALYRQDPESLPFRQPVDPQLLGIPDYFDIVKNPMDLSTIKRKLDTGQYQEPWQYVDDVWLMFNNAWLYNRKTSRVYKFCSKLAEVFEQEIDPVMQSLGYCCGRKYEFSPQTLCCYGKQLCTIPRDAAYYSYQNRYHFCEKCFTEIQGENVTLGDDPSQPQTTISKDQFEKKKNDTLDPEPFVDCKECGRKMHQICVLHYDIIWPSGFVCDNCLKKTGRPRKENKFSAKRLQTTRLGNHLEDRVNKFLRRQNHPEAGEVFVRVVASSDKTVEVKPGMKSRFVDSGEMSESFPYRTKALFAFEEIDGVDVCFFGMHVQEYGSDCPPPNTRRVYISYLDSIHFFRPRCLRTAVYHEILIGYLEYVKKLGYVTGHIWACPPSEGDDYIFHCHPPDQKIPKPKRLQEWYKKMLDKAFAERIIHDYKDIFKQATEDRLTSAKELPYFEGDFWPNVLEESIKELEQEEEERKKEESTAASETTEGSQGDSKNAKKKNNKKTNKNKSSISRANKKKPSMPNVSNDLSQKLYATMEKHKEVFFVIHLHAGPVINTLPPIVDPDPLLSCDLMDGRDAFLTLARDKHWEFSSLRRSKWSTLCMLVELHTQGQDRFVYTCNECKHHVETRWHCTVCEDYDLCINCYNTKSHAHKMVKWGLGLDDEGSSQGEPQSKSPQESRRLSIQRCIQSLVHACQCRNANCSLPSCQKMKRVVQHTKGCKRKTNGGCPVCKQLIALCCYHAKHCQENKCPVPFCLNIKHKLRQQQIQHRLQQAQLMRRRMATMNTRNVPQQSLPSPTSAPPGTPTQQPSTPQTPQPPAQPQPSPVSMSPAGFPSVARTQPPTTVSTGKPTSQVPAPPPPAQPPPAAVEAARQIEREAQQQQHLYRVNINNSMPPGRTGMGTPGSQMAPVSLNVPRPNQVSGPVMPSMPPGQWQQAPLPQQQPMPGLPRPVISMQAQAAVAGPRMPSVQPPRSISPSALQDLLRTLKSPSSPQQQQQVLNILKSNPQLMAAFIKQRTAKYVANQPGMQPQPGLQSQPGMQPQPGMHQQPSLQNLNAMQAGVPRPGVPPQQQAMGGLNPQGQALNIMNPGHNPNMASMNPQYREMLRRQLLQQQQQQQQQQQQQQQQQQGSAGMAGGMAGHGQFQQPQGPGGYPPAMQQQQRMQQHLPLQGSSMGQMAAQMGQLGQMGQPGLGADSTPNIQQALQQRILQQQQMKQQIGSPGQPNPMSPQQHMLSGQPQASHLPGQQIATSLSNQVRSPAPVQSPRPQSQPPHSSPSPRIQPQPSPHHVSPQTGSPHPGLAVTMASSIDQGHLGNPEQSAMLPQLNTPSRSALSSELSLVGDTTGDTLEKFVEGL

With H-DEEVLMSLVIEMGLDRIKELPEL-OH, the Kd in data set [1] is recorded as 37.1 nM.

Take H-GLDRIKELPELWLG-OH: the Kd in data set [1] turned out to be 1544 nM.

Consider H-DEEILMSLVIEMGLDRWKELPEL-OH, for which the outcome (with HeLa [2]; in [3]) was Active. In data set [1], this molecule had an equilibrium dissociation constant (Kd) of 22.3 nM. In [4], the Stability entry was “Stable”.

In [1], “H-DEEVLMSLVIEMGLDRIKELPELWLGQNEFDFMTDF-OH” came in with a Kd of 17.7 nM.

Take H-QNEFDFMTDF-OH: the Kd in data set [1] came to 312.5 nM.

As for H-DEEVLWSLVIEMGLDRIKELPEL-OH, the Drug uptake entry in data set [5] was “Active”.

As to `CC[C@H](C)[C@H](NC(=O)[C@@H]1CNC(=O)[C@@H](N)CC(=O)N[C@@H](CC(=O)O)C(=O)N[C@@H](CCC(=O)O)C(=O)N1)C(=O)N[C@@H](CC(C)C)C(=O)N[C@@H](CCSC)C(=O)N[C@@H](CO)C(=O)N[C@@H](CC(C)C)C(=O)N[C@H](C(=O)N[C@H](C(=O)N[C@@H](CCC(=O)O)C(=O)N[C@@H](CCSC)C(=O)NCC(=O)N[C@@H](CC(C)C)C(=O)N[C@@H](CC(=O)O)C(=O)N[C@@H](CCCNC(=N)N)C(=O)N[C@@H](Cc1c[nH]c2ccccc12)C(=O)N[C@@H](CCCCN)C(=O)N[C@@H](CCC(=O)O)C(=O)N[C@@H](CC(C)C)C(=O)N1CCC[C@H]1C(=O)N[C@@H](CCC(=O)O)C(=O)N[C@@H](CC(C)C)C(N)=O)[C@@H](C)CC)C(C)C` (HELM PEPTIDE1{D.E.[O=C([C@H](CN[*:3])N[*:1])[*:2]].I.L.M.S.L.V.I.E.M.G.L.D.R.W.K.E.L.P.E.L.[am]}|CHEM1{[N[C@@H](CC(=O)[*:1])C(=O)[*:2]]}$PEPTIDE1,CHEM1,1:R1-1:R1|PEPTIDE1,CHEM1,3:R3-1:R2$$$V2.0), the inhibition entry in [6], in data set [9] and in data set [13] was “Active” throughout. In [1], this molecule yielded a dissociation constant Kd of 21.4 nM. The outcome (in [3]; in the data set on HeLa [7]; with HeLa [10]; with HeLa [12]; in the data set on A549; with HeLa [14]) was Active. The outcome in the data set on HeLa [15] and in the data set with HeLa [16] was Active. The “growth inhibition (GI)” value in the data set with HeLa [8], with HeLa [11] and in the data set with MDA-MB-231 was “Active” in each case. Besides, in data set [4], the Stability entry is reported as “Stable”.

In turn, H-LPELWLGQNEFDFMTDF-OH displayed a Kd in data set [1] of 226 nM.

Regarding H-DEEILWSLVIEMGLDRWKELPEL-OH, in data set [1], the Kd was 29.5 nM.

On to H-DEEVLMSLVIEM-OH, for which the Kd in [1] was determined as 228.2 nM.

As to H-DEEILMSLVIEMGLDRIKELPEL-OH, the Drug uptake entry in data set [5] was “Active”.

As for H-DEEVLWSLVIEMGLDRWKELPEL-OH, in [1], the Kd came to 36.2 nM.

Consider H-DEEVLMSLVIEMGLDRWKELPEL-OH, for which, in data set [5], the Drug uptake result is on record as “Active”.

As for H-DEEILWSLVIEMGLDRIKELPEL-OH, in the data set with HeLa [2], the result was Active. This molecule had a Kd in data set [1] of 32 nM.

Regarding `CC[C@H](C)[C@H](NC(=O)[C@H](CCCNC(=N)N)NC(=O)[C@H](CC(=O)O)NC(=O)[C@H](CC(C)C)NC(=O)CNC(=O)[C@H](CCSC)NC(=O)[C@H](CCC(=O)O)NC(=O)[C@@H](NC(=O)[C@@H](NC(=O)[C@H](CC(C)C)NC(=O)[C@H](CO)NC(=O)[C@H](CCSC)NC(=O)[C@H](CC(C)C)NC(=O)[C@@H](NC(=O)[C@H]1CNC(=O)[C@@H](N)CC(=O)N[C@@H](CC(=O)O)C(=O)N[C@@H](CCC(=O)O)C(=O)N1)C(C)C)C(C)C)[C@@H](C)CC)C(=O)N[C@@H](CCCCN)C(=O)N[C@@H](CCC(=O)O)C(=O)N[C@@H](CC(C)C)C(=O)N1CCC[C@H]1C(=O)N[C@@H](CCC(=O)O)C(=O)N[C@@H](CC(C)C)C(N)=O`, in data set [1], the Kd is listed as 33.7 nM.
